Reference: ChEMBL document CHEMBL1127216, “Diastereoselective synthesis of cyclopropyl phenylalanines and their incorporation into dipeptides” (Bioorg Med Chem Lett, 1993)

Columns and labels:
[1] = target: T1, Gastrin/cholecystokinin type B receptor (Mus musculus, UniProt P56481); assay: Compound was tested for the inhibition of specific binding of [125I]bolton Hunter CCK-8 to Cholecystokinin type B receptor in mouse cerebral cortex; format: tissue-based
T1 sequence (P56481 whole entry): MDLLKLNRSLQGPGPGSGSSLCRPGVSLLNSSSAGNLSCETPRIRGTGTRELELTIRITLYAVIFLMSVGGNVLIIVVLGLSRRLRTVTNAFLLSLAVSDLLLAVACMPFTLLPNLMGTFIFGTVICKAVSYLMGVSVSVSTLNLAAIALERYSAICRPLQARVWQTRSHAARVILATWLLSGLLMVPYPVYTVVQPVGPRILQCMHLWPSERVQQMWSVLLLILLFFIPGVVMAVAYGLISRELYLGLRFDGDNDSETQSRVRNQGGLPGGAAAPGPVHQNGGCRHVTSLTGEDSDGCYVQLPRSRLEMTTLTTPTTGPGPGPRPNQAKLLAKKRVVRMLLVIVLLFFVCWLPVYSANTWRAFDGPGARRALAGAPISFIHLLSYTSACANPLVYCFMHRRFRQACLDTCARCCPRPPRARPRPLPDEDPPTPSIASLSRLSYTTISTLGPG

[2] = target: T2, Cholecystokinin receptor type A (Rattus norvegicus, UniProt P30551); assay: Compound was tested for the inhibition of specific binding of [125I]bolton Hunter CCK-8 to Cholecystokinin type A receptor in the rat pancreas
T2 sequence (P30551 whole entry): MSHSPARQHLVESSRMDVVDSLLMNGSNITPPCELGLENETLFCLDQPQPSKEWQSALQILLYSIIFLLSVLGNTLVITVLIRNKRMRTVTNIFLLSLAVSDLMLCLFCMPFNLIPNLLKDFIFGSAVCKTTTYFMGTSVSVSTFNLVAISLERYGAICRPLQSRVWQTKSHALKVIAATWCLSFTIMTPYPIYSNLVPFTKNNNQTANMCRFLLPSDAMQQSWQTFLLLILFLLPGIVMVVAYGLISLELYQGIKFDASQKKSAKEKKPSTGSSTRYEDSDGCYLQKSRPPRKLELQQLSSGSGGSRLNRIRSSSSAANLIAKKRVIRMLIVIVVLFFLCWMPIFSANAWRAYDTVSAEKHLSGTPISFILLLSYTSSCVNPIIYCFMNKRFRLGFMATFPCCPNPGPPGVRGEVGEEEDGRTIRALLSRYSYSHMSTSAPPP

SMILES	IC50 [1] [nM]	IC50 [2] [nM]
COC(=O)/C(=C/c1ccccc1)NC(=O)[C@@](C)(Cc1c[nH]c2ccccc12)NC(=O)OC1C2CC3CC(C2)CC1C3 (some centres undefined)	270	–
COC(=O)[C@]1(NC(=O)[C@@](C)(Cc2c[nH]c3ccccc23)NC(=O)OC2C3CC4CC(C3)CC2C4)C[C@H]1c1ccccc1 (some centres undefined)	600	720
C[C@](Cc1c[nH]c2ccccc12)(NC(=O)OC1C2CC3CC(C2)CC1C3)C(=O)N/C(=C\c1ccccc1)C(=O)O (some centres undefined)	54	60
COC(=O)[C@@]1(NC(=O)[C@@](C)(Cc2c[nH]c3ccccc23)NC(=O)OC2C3CC4CC(C3)CC2C4)C[C@H]1c1ccccc1 (some centres undefined)	3.9	26
C[C@](Cc1c[nH]c2ccccc12)(NC(=O)OC1C2CC3CC(C2)CC1C3)C(=O)N[C@@]1(C(=O)O)C[C@H]1c1ccccc1 (some centres undefined)	140	84
